BindingDB's records for doi:10.1021/ml300405d (Therachem Research Medilab (India), 2013)

Each compound was assayed against Tyrosine-protein kinase SYK (Homo sapiens) (UniProt P43405) (assay: Inhibition of human Gst-tagged Syk expressed in sf9 cells).

| IC50 [nM] | SMILES |
| --- | --- |
| 6150 | COc1ccc(Nc2nc(N3CCC(C(=O)Nc4ccc(C(=O)O)cc4)C3)nc3scnc23)nc1OC (stereo not drawn) |
| 71 | COc1ccc(Nc2nc(N3CCCC(C(=O)Nc4ccc(C(=O)O)c(O)c4)C3)nc3scnc23)cc1OC (stereo not drawn) |
| 71 | CNC(=O)c1ccc(NC(=O)c2cccc(-c3nc(Nc4ccc(OC)c(OC)c4)c4ncsc4n3)c2)cc1 |
